Source: patent US20230143752A1, “CANNABIDIOL NANODRUG FORMULATIONS AND METHODS FOR USE OF THE SAME” (priority 2020, published 2023)

Tests used:
[1] = test system: CTLL-2 cytotoxic T lymphocytes; assay: In vitro screening platform for immunomodulation (CTLL-2); format: cell-based; conditions: CTLL-2, FIG. 4
Method: An in vitro screening platform for immunomodulation was used to evaluate nanoparticles for efficacy. CTLL-2 (ATCC®TIB-214™) are cytotoxic T lymphocytes that were purchased and cultured according to ATCC protocol. Once confluent, cells were seeded in a 12-well plate at a concentration of 55,000 cells/mL and treated, in triplicates, with the CBD nanoformulations described herein.
A similar experiment was carried out using CBD alone (not in nanoformulations).
In order to investigate options for improving CBD drug delivery in vitro, CBD was also formulated as a carrier-free nanoparticle and evaluated for efficacy.

[2] = test system: mice with Auto-Immune Alopecia; assay: Hair regrowth in alopecia mice, topical treatment daily for 12 weeks; format: in vivo; conditions: for Number of animals per hair regrowth category, Category 0: 0=no hair growth; for Number of animals per hair regrowth category, Category 0 / Number of animals per hair regrowth category, Category 1 / Number of animals per hair regrowth category, Category 2 / Number of animals per hair regrowth category, Category 3 / Number of animals per hair regrowth category, Category 4: six animals per group, topical daily 12 weeks; for Number of animals per hair regrowth category, Category 1: 1=0-25% hair regrowth; for Number of animals per hair regrowth category, Category 2: 2=25-50% hair regrowth; for Number of animals per hair regrowth category, Category 3: 3=50-75% hair regrowth; for Number of animals per hair regrowth category, Category 4: 4=75-100% hair regrowth
Method: An animal study was carried out to determine the effect of a CBD nanoparticulate formulation comprising minoxidil as described herein on the induction of hair regrowth in alopecia mice after 12 weeks. In order to collect preliminary information on the reversal of Alopecia by CBD/minoxidil, a randomized pilot study on 24 animals was performed.
Eight- to ten-month-old mice with Auto-Immune Alopecia were randomized into four groups (six animals per group), receiving topical treatments daily for 12 weeks. Group 1 (Control group) received 0.1 ml of control solution applied topically over the ventral area daily for 12 weeks. Group 2 (CBD group) received 20 μg of CBD in 0.1 ml of control solution applied topically over the ventral area daily for 12 weeks. Group 3 (minoxidil) received 0.1 ml of 5% minoxidil solution applied topically over the ventral area daily for 12 weeks. Group 4 (CBD/minoxidil) received 20 μg of CBD and 5% minoxidil in 0.1 ml solution applied topically over the ventral area daily for 12 weeks.
Mice were sacrificed at the end point of a twelve week observation period, and skin biopsies were obtained. Skin biopsies were processed for histopathology.
Reported categories are as follows: 0=no hair growth, 1=0-25% hair regrowth, 2=25-50% hair regrowth, 3=50-75% hair regrowth, 4=75-100% hair regrowth.

[3] = alopecia mice, after 12 weeks, FIG. 6

Structure (SMILES): C=C(C)[C@@H]1CCC(C)=C[C@H]1c1c(O)cc(CCCCC)cc1O [CBD, Cannabidiol]
- reducing T-lymphocytes compared to controls [1]: effective
- Number of animals per hair regrowth category, Category 0 [2]: 6
- Number of animals per hair regrowth category, Category 1 [2]: 0
- Number of animals per hair regrowth category, Category 2 [2]: 0
- Number of animals per hair regrowth category, Category 3 [2]: 0
- Number of animals per hair regrowth category, Category 4 [2]: 0
- hair regrowth, summary ([2]; alopecia mice, 12 weeks topical): none of the control (vehicle), CBD alone, or minoxidil alone mice showed significant hair regrowth
- effect observed in histopathology [2, 3]: No significant effect
- histopathology finding in skin biopsies [2, 3]: miniaturization

Structure (SMILES): Nc1cc(N2CCCCC2)nc(N)[n+]1[O-] [Minoxidil, minoxidil]
- Number of animals per hair regrowth category, Category 0 [2]: 6
- Number of animals per hair regrowth category, Category 1 [2]: 0
- Number of animals per hair regrowth category, Category 2 [2]: 0
- Number of animals per hair regrowth category, Category 3 [2]: 0
- Number of animals per hair regrowth category, Category 4 [2]: 0
- effect observed in histopathology [2, 3]: No significant effect
